Source: ChEMBL document CHEMBL1201862, “PubChem BioAssay data set” (2004)
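Tested at 5 concentrations; 48 h exposure; 96-well plates; endpoints linearly interpolated, else capped at highest concentration. GI50 marks 50% less growth.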 The source made the active and inactive calls. Rule as the data show it: active = GI50 up to about 1.1 µM and inactive = higher.

Columns and labels:
Assay in all cases: inhibition of tumour cell growth, NCI panel, 48 h
[1] = test system: CAKI-1
[2] = test system: HCC 2998
[3] = test system: HCT-15
[4] = test system: HOP-92
[5] = test system: IGROV-1
[6] = test system: NCI-H226
[7] = test system: NCI-H23
[8] = test system: OVCAR-3
[9] = test system: OVCAR-4
[10] = test system: OVCAR-8
[11] = test system: SF-268
[12] = test system: SF-539
[13] = test system: SK-OV-3
[14] = test system: SNB-19
[15] = test system: TK-10
[16] = test system: UACC-62
[17] = test system: UO-31
[18] = test system: A498
[19] = test system: HL-60

| SMILES | GI50 [1] | GI50 [2] | GI50 [3] | GI50 [4] | GI50 [5] | GI50 [6] | GI50 [7] | GI50 [8] | GI50 [9] | GI50 [10] | GI50 [11] | GI50 [12] | GI50 [13] | GI50 [14] | GI50 [15] | GI50 [16] | GI50 [17] | GI50 [18] | GI50 [19] |
| --- | --- | --- | --- | --- | --- | --- | --- | --- | --- | --- | --- | --- | --- | --- | --- | --- | --- | --- | --- |
| O=C1NC(=S)NC(=O)C1=Cc1ccc(-c2ccccc2)cc1 | > 100 µM (inactive) | > 100 µM (inactive) | > 100 µM | > 100 µM (inactive) | > 100 µM (inactive) | > 100 µM (inactive) | > 100 µM (inactive) | > 100 µM (inactive) | > 100 µM (inactive) | 49.8 µM (inactive) | > 100 µM (inactive) | > 100 µM (inactive) | > 100 µM (inactive) | > 100 µM (inactive) | > 100 µM (inactive) | > 100 µM (inactive) | > 100 µM (inactive) | – | – |
| CC(=O)Nc1ccc(C(=O)N2N=C(C)/C(=C/c3cccc(O)c3)C2=O)cc1 | > 100 µM (inactive) | > 100 µM (inactive) | > 100 µM | – | – | > 100 µM (inactive) | > 100 µM (inactive) | > 100 µM (inactive) | > 100 µM (inactive) | > 100 µM (inactive) | > 100 µM (inactive) | > 100 µM (inactive) | – | > 100 µM (inactive) | > 100 µM (inactive) | – | > 100 µM (inactive) | – | – |
| COc1cc2c3cc1Oc1c(O)c(OC)cc4c1C(Cc1ccc(O)c(c1)Oc1ccc(cc1)CC3N(C)CC2)N(C)CC4 (configuration not stated) | 17.3 µM (inactive) | 5.61 µM (inactive) | 11.6 µM | 11.9 µM (inactive) | 26.2 µM (inactive) | 21.4 µM (inactive) | 23.7 µM (inactive) | 16.9 µM (inactive) | 13.8 µM (inactive) | 14.3 µM (inactive) | 16.8 µM (inactive) | 2.46 µM (inactive) | 23.3 µM (inactive) | 26 µM (inactive) | 13.6 µM (inactive) | 23.2 µM (inactive) | 15.8 µM (inactive) | 18.2 µM (inactive) | 21.5 µM (inactive) |
| CC(C)(C)OC(=O)NCCC(=O)NC1(c2cc3ccccc3s2)CCCCC1 | 21.2 µM (inactive) | 23.2 µM (inactive) | 15.1 µM | 16.6 µM (inactive) | 17.3 µM (inactive) | 21.3 µM (inactive) | 15.5 µM (inactive) | 15.6 µM (inactive) | 13.4 µM (inactive) | 17.5 µM (inactive) | – | 15 µM (inactive) | 24.4 µM (inactive) | 17.4 µM (inactive) | 29 µM (inactive) | 20.6 µM (inactive) | 16.1 µM (inactive) | 22.9 µM (inactive) | 16.7 µM (inactive) |
| COCOc1ccc(OC)cc1 | > 100 µM (inactive) | > 100 µM (inactive) | > 100 µM | > 100 µM (inactive) | > 100 µM (inactive) | > 100 µM (inactive) | > 100 µM (inactive) | > 100 µM (inactive) | > 100 µM (inactive) | > 100 µM (inactive) | > 100 µM (inactive) | > 100 µM (inactive) | > 100 µM (inactive) | > 100 µM (inactive) | – | > 100 µM (inactive) | > 100 µM (inactive) | > 100 µM (inactive) | > 100 µM (inactive) |
| Cc1n[nH]c(=O)n1N=C(c1ccccc1)c1ccccc1 | > 100 µM (inactive) | – | > 100 µM | > 100 µM (inactive) | > 100 µM (inactive) | > 100 µM (inactive) | > 100 µM (inactive) | > 100 µM (inactive) | > 100 µM (inactive) | > 100 µM (inactive) | > 100 µM (inactive) | – | – | > 100 µM (inactive) | > 100 µM (inactive) | > 100 µM (inactive) | > 100 µM (inactive) | > 100 µM (inactive) | – |
| O=[N+]([O-])c1cc(C(F)(F)F)cc2c1SC1=Nc3ccccc3CN12 | > 100 µM (inactive) | > 100 µM (inactive) | > 100 µM | > 100 µM (inactive) | > 100 µM (inactive) | > 100 µM (inactive) | > 100 µM (inactive) | > 100 µM (inactive) | > 100 µM (inactive) | > 100 µM (inactive) | > 100 µM (inactive) | > 100 µM (inactive) | > 100 µM (inactive) | > 100 µM (inactive) | – | > 100 µM (inactive) | > 100 µM (inactive) | > 100 µM (inactive) | > 100 µM (inactive) |
| CCOc1cccc2[s+]snc12 | > 100 µM (inactive) | > 100 µM (inactive) | > 100 µM | – | > 100 µM (inactive) | > 100 µM (inactive) | > 10 µM (inactive) | 30.3 µM (inactive) | 58.5 µM (inactive) | 54.3 µM (inactive) | 98.4 µM (inactive) | 46.8 µM (inactive) | > 100 µM (inactive) | > 100 µM (inactive) | > 100 µM (inactive) | 40.3 µM (inactive) | 37.3 µM (inactive) | > 100 µM (inactive) | 30.2 µM (inactive) |
| CN(C)CC1CN=C(N)O1 (configuration not stated) | > 100 µM (inactive) | > 100 µM (inactive) | > 100 µM | > 100 µM (inactive) | – | > 100 µM (inactive) | > 100 µM (inactive) | > 100 µM (inactive) | > 100 µM (inactive) | – | > 100 µM (inactive) | > 100 µM (inactive) | > 100 µM (inactive) | > 100 µM (inactive) | > 100 µM (inactive) | > 100 µM (inactive) | > 100 µM (inactive) | > 100 µM (inactive) | – |
| N/C(=N/O)N/N=C\c1cc(Cl)cc(Cl)c1O | 1.09 µM (active) | 2.31 µM (inactive) | 2.02 µM | 7.26 µM (inactive) | 6.97 µM (inactive) | 2.01 µM (inactive) | 1.54 µM (inactive) | 5.41 µM (inactive) | 8.04 µM (inactive) | 2.38 µM (inactive) | 1.4 µM (inactive) | 1.64 µM (inactive) | 4.91 µM (inactive) | 2.27 µM (inactive) | – | 0.42 µM (active) | 4.25 µM (inactive) | 6.38 µM (inactive) | 0.0116 µM (active) |
| O=C1c2ccccc2-c2cccc3ccc(Cc4ccc5ccccc5c4)c1c23 | – | > 100 µM (inactive) | > 100 µM | 49.4 µM (inactive) | > 100 µM (inactive) | – | > 100 µM (inactive) | > 100 µM (inactive) | > 100 µM (inactive) | > 100 µM (inactive) | > 100 µM (inactive) | > 100 µM (inactive) | – | > 100 µM (inactive) | > 100 µM (inactive) | > 100 µM (inactive) | > 100 µM (inactive) | – | > 100 µM (inactive) |
| CCC1N2CCCCC2[C@@H]2c3[nH]c4ccccc4c3CCN12 (some centres not stated) | > 100 µM (inactive) | > 100 µM (inactive) | > 100 µM | > 100 µM (inactive) | > 100 µM (inactive) | – | > 100 µM (inactive) | > 100 µM (inactive) | > 100 µM (inactive) | > 100 µM (inactive) | > 100 µM (inactive) | > 100 µM (inactive) | > 100 µM (inactive) | > 100 µM (inactive) | > 100 µM (inactive) | > 100 µM (inactive) | > 100 µM (inactive) | > 100 µM (inactive) | > 100 µM (inactive) |
| Cc1ccc(NC(=O)c2cc3ccccc3c(/N=N/c3cc(S(=O)(=O)O)ccc3O)c2O)c(C)c1 | 32.5 µM (inactive) | – | 9.33 µM | 21.2 µM (inactive) | 16.3 µM (inactive) | 15.4 µM (inactive) | 16.6 µM (inactive) | 3.26 µM (inactive) | 12.7 µM (inactive) | 17.5 µM (inactive) | 18.6 µM (inactive) | – | 20 µM (inactive) | 15.8 µM (inactive) | 25.1 µM (inactive) | 15.5 µM (inactive) | 4.44 µM (inactive) | 42.3 µM (inactive) | – |
| S=P1(Oc2ccccc2)NNP2(=NP(N3CC3)(N3CC3)=NP(N3CC3)(N3CC3)=N2)NN1 (configuration not stated) | > 100 µM (inactive) | > 100 µM (inactive) | > 100 µM | – | > 100 µM (inactive) | > 100 µM (inactive) | 41.9 µM (inactive) | > 100 µM (inactive) | > 100 µM (inactive) | > 100 µM (inactive) | 78.3 µM (inactive) | > 100 µM (inactive) | > 100 µM (inactive) | > 100 µM (inactive) | > 100 µM (inactive) | 98.4 µM (inactive) | > 100 µM (inactive) | > 100 µM (inactive) | 30.4 µM (inactive) |
| CCOC(=O)Nc1ccc(S(=O)(=O)OC)cc1.CCOC(=O)Nc1ccc(S(=O)(=O)OC)cc1.Cc1cn(C2CC(O)C(CO)O2)c(=O)[nH]c1=O | > 100 µM (inactive) | > 100 µM (inactive) | 18.6 µM | > 100 µM (inactive) | > 100 µM (inactive) | > 100 µM (inactive) | > 100 µM (inactive) | > 100 µM (inactive) | 86.3 µM (inactive) | > 100 µM (inactive) | > 100 µM (inactive) | > 100 µM (inactive) | > 100 µM (inactive) | > 100 µM (inactive) | > 100 µM (inactive) | > 100 µM (inactive) | > 100 µM (inactive) | > 100 µM (inactive) | 91.8 µM (inactive) |
| N/C(=N\O)N/N=C/c1ccc2c(c1)OCCO2 | 16.4 µM (inactive) | – | 10.3 µM | 27 µM (inactive) | 12.4 µM (inactive) | 4.08 µM (inactive) | 25.6 µM (inactive) | 3.15 µM (inactive) | 8.91 µM (inactive) | 8.49 µM (inactive) | 4.81 µM (inactive) | 17.1 µM (inactive) | 34 µM (inactive) | 9.82 µM (inactive) | – | – | 8.65 µM (inactive) | 27.2 µM (inactive) | 18.2 µM (inactive) |
